Data from ChEMBL document CHEMBL1821636, “Binding inhibitors of the bacterial sliding clamp by design” (J Med Chem, 2011).
Non-standard residues stand in square brackets, D forms with d. Residues, ends and D or L forms follow the SMILES beside them. Phe(3,4-Cl2) = N[C@@H](Cc1ccc(Cl)c(Cl)c1)C(=O)O; pGlu = O=C1CC[C@@H](C(=O)O)N1

Experiments:
[1] = Inhibition of Escherichia coli polymerase 3alpha/beta subunit homo dimer interaction by plate binding assay
[2] = Binding affinity to Escherichia coli polymerase 3 beta subunit homo dimer by SPR assay

CCC/C(=N\OCc1ccc(-c2ccccc2)cc1)C1C(=O)CC(C)(C2OCC(C)(C)CO2)OC1=O (stereo not given)
IC50 [1]: 270000 nM

CCC/C(=N\OC/C(Cl)=C/c1ccc(Cl)cc1)C1C(=O)CC(C)(C)CC1=O
IC50 [1]: 350000 nM

CC[C@H](C)[C@H](N)C(=O)NCC(=O)N[C@@H](CCC(N)=O)C(=O)N[C@@H](C)C(=O)N[C@@H](CC(=O)O)C(=O)N[C@@H](CCSC)C(=O)N[C@@H](Cc1ccccc1)C(=O)NCC(=O)N[C@H](C(=O)O)C(C)C
IC50 [2]: 3000 nM
IC50 [1]: 96000 nM

CC(C)C[C@H](NC(=O)[C@H](CC(=O)O)NC(=O)[C@H](CC(C)C)NC(=O)[C@@H](N)CCC(N)=O)C(=O)N[C@@H](Cc1ccccc1)C(=O)O
IC50 [2]: 620 nM
IC50 [1]: 2600 nM

CC(=O)N[C@@H](CCC(N)=O)C(=O)N[C@@H](CC(C)C)C(=O)N[C@@H](CC(=O)O)C(=O)N[C@@H](CC(C)C)C(=O)N[C@@H](Cc1ccccc1)C(=O)O
IC50 [2]: 400 nM
IC50 [1]: 70 nM

CC(=O)N[C@@H](CCC(N)=O)C(=O)N[C@@H](CC(C)C)C(=O)N[C@@H](CC(=O)O)C(=O)N[C@@H](CC(C)C)C(=O)N[C@@H](Cc1ccccc1Cl)C(=O)O
IC50 [2]: 117 nM
IC50 [1]: 34 nM

CC(=O)N[C@@H](CCC(N)=O)C(=O)N[C@@H](CC(C)C)C(=O)N[C@@H](CC(=O)O)C(=O)N[C@@H](CC(C)C)C(=O)N[C@@H](Cc1cccc(Cl)c1)C(=O)O
IC50 [2]: 49 nM
IC50 [1]: 11 nM

CC(=O)N[C@@H](CCC(N)=O)C(=O)N[C@@H](CC(C)C)C(=O)N[C@@H](CC(=O)O)C(=O)N[C@@H](CC(C)C)C(=O)N[C@@H](Cc1ccc(Cl)cc1)C(=O)O
IC50 [2]: 20 nM
IC50 [1]: 27 nM

CC(=O)N[C@@H](CCC(N)=O)C(=O)N[C@@H](CC(C)C)C(=O)N[C@@H](CC(=O)O)C(=O)N[C@@H](CC(C)C)C(=O)N[C@@H](Cc1ccc(Cl)c(Cl)c1)C(=O)O
IC50 [2]: 23 nM
IC50 [1]: 21 nM

CCC(=O)N[C@@H](CCC(N)=O)C(=O)N[C@@H](CC(C)C)C(=O)N[C@@H](CC(=O)O)C(=O)N[C@@H](CC(C)C)C(=O)N[C@@H](Cc1ccc(Cl)c(Cl)c1)C(=O)O
IC50 [2]: 61 nM
IC50 [1]: 63 nM

CC(C)C[C@H](NC(=O)[C@H](CC(=O)O)NC(=O)[C@H](CC(C)C)NC(=O)[C@H](CCC(N)=O)NC(=O)C(C)(C)C)C(=O)N[C@@H](Cc1ccc(Cl)c(Cl)c1)C(=O)O
IC50 [2]: 69 nM
IC50 [1]: 62 nM

CC(C)C[C@H](NC(=O)[C@H](CC(=O)O)NC(=O)[C@H](CC(C)C)NC(=O)[C@H](CCC(N)=O)NC(=O)COCc1ccccc1)C(=O)N[C@@H](Cc1ccc(Cl)c(Cl)c1)C(=O)O
IC50 [2]: 337 nM
IC50 [1]: 67 nM

CC(C)C[C@H](NC(=O)[C@H](CC(=O)O)NC(=O)[C@H](CC(C)C)NC(=O)[C@H](CCC(N)=O)NC(=O)Cc1c[nH]c2ccccc12)C(=O)N[C@@H](Cc1ccc(Cl)c(Cl)c1)C(=O)O
IC50 [2]: 537 nM
IC50 [1]: 66 nM

COc1ccc(C(=O)N[C@@H](CCC(N)=O)C(=O)N[C@@H](CC(C)C)C(=O)N[C@@H](CC(=O)O)C(=O)N[C@@H](CC(C)C)C(=O)N[C@@H](Cc2ccc(Cl)c(Cl)c2)C(=O)O)c(OC)c1
IC50 [2]: 27 nM
IC50 [1]: 42 nM

CC(C)C[C@H](NC(=O)[C@H](CC(=O)O)NC(=O)[C@H](CC(C)C)NC(=O)[C@H](CCC(N)=O)NC(=O)c1ccccc1)C(=O)N[C@@H](Cc1ccc(Cl)c(Cl)c1)C(=O)O
IC50 [2]: 456 nM
IC50 [1]: 69 nM

CC(C)COC(=O)N[C@@H](CCC(N)=O)C(=O)N[C@@H](CC(C)C)C(=O)N[C@@H](CC(=O)O)C(=O)N[C@@H](CC(C)C)C(=O)N[C@@H](Cc1ccc(Cl)c(Cl)c1)C(=O)O
IC50 [2]: 41 nM
IC50 [1]: 20 nM

COC(=O)N[C@@H](CCC(N)=O)C(=O)N[C@@H](CC(C)C)C(=O)N[C@@H](CC(=O)O)C(=O)N[C@@H](CC(C)C)C(=O)N[C@@H](Cc1ccc(Cl)c(Cl)c1)C(=O)O
IC50 [2]: 89 nM
IC50 [1]: 86 nM

NC(CCC(=O)NC(CSCC(=O)c1ccc(Br)cc1)C(=O)NCC(=O)O)C(=O)O (stereo not given)
IC50 [1]: 210000 nM

CCCC(C)(c1ccc(OC(=O)Cc2ccc([N+](=O)[O-])cc2)cc1)c1ccc(OC(=O)Nc2ccc([N+](=O)[O-])cc2)cc1 (stereo not given)
IC50 [1]: 300000 nM

CCC/C(=N\OCc1ccc(-c2ccc(F)cc2)cc1)C1C(=O)CC(C)(C)C(C#N)C1=O (stereo not given)
IC50 [1]: 40000 nM

CSCC[C@H](NC(=O)[C@H](CC(=O)O)NC(=O)[C@H](CC(C)C)NC(=O)[C@H](CCC(N)=O)NC(C)=O)C(=O)N[C@@H](Cc1ccc(Cl)c(Cl)c1)C(=O)O (Ac-QLDM[Phe(3,4-Cl2)]-OH)
IC50 [2]: 33 nM
IC50 [1]: 37 nM

CC(C)C[C@H](NC(=O)[C@H](CC(=O)O)NC(=O)[C@H](CC(C)C)NC(=O)[C@@H]1CCC(=O)N1)C(=O)N[C@@H](Cc1ccccc1)C(=O)O ([pGlu]LDLF-OH)
IC50 [1]: 4500 nM

H-IGQADFFGV-OH
IC50 [1]: 174000 nM

H-IGQADIFGV-OH
IC50 [1]: 315000 nM

H-IGQADLFGV-OH
IC50 [1]: 56000 nM

H-IGQADMWGV-OH
IC50 [1]: 282000 nM

H-IGQADWFGV-OH
IC50 [1]: 345000 nM

H-IGQLSLFGV-OH
IC50 [2]: 550 nM
IC50 [1]: 2300 nM
